Data on 18 compounds can be found in PMC12308805, “Ultrahigh-Throughput Virtual Screening Strategies against PPI Targets: A Case Study of STAT Inhibitors” (Journal of Chemical Information and Modeling, 2025).

Values joined by “and” are separate entries in the source; they are usually repeats but may differ in a detail not shown here. Equal values may be shown once. Ends that are not written are not given here. Where only a bound is given, the exact number is not on record here.

By IC50 is commonly meant the concentration at which inhibition is half-maximal.

The test system of one experiment is STAT3. Particulars: sheet 6QHD_actives_decoys, retrospective screening set for STAT3 SH2 domain (PDB 6QHD); decoys are presumed inactives, not tested; ref DUD-E; cited from earlier work.
The target of experiment [1] is T1, STAT3 (127–770) SH2 domain (Homo sapiens, UniProt P40763).
T1 construct: For STAT3 (127–770), the final concentration of the protein was 200 nM; made in house
T1 sequence (P40763 127-770): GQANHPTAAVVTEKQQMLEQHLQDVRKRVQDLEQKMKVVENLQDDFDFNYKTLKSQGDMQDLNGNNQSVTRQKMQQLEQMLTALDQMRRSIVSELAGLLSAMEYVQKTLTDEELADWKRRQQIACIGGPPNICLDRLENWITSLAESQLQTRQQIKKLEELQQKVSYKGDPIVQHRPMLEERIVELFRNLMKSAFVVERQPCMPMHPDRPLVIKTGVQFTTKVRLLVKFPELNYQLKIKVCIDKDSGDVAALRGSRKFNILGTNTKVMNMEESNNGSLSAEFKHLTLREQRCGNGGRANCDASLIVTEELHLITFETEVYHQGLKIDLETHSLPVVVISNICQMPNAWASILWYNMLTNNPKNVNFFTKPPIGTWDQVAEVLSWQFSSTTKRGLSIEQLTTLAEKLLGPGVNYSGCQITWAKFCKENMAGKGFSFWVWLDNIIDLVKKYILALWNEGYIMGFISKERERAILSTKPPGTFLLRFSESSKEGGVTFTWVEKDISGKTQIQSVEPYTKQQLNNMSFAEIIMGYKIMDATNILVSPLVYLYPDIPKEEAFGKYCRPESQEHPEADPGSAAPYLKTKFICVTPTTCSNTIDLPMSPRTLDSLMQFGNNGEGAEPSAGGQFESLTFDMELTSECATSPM
The experiment in a line: Fluorescence polarization assay (FP-assay), STAT3 SH2 domain. It is filed as binding. The arrangement: key to identified as active in FP-assay: A compound was identified as active, if it had a mean IC50 value under 100 μM. The settings on record: for IC50: FP-assay, mean IC50, at least three biological replicates. How it is done: The respective protocols for the expression and purification of the STAT3 SH2 and STAT5b SH2 domains were published in our recent works. Fluorescence polarization assays (FP-assays) were performed on a Molecular Devices SpectraMax iD5Multimode Microplate Reader (San Jose, CA, USA) using Greiner black 384-well flat-bottom nonbinding microplates with 40 μL final well volumes. The fluorescent peptides (5-FAM-G(pTyr)-LPQTV-NH2 and 5-FAM-G(pTyr)-LVLDKW-NH2, purchased from GenScript Biotech Ltd., Piscataway, NJ, USA), as well as the proteins, were diluted with a buffer containing 50 mM NaCl, 10 mM HEPES (4-(2-hydroxyethyl)-1-piperazineethanesulfonic acid), 1 mM EDTA (ethylenediaminetetraacetic acid), 2 mM DTT (dithiothreitol), and 0.1% Triton X-100, pH 7.5. For STAT3 (127–770), the final concentration of the protein was 200 nM, and the fluorescent peptide (5-FAM-G(pTyr)-LPQTV-NH2) was added at a final concentration of 5 nM; for STAT5b (136–703), the final concentration of the protein was 500 nM, and the fluorescent peptide (5-FAM-G(pTyr)-LVLDKW-NH2) was added at a final concentration of 10 nM. The wells were treated with varying concentrations of inhibitors (1250 to 0.11 μM final concentrations). The final DMSO content was 2.5%. After mixing, the protein and inhibitors were incubated at room temperature for 30 min, then the fluorescent peptide was added, and the plate was incubated for another 20 min prior to the fluorescence readout (extinction wavelength: 475 nm, emission wavelength: 520 nm). The measurements were carried out in at least three biological replicates. Fluorescence polarization was calculated from the perpendicular and parallel fluorescence intensities and then plotted against concentration. The IC50 values were determined after fitting quadratic dose–response curves on the data points in GraphPad Prism 8.0.1. […] All plotted curves and data points for the hit compounds are included in Section 2 of the Supporting Information.

Take `CCOC(=O)C1=C(C)N(CCOC)C(=O)/C1=C\c1ccc(CNC(=O)C(=O)Nc2ccc(C(=O)OCC)cc2)o1` [Decoy951]: the Type entry in the experiment on STAT3 is “Inactive (Decoy)”.
Consider `CCN(CC)Cc1nnn(-c2nonc2N)c1C(=O)N/N=C(\C)c1ccc(OCc2ccc(Cl)cc2Cl)cc1` [Decoy952], for which the Type entry in the experiment on STAT3 is “Inactive (Decoy)”.
As for `CCCn1c(N)c(N(CCOC)C(=O)Cc2coc3cc(C)c(C(C)C)cc23)c(=O)[nH]c1=O` [Decoy953], the Type entry in the experiment with STAT3 was “Inactive (Decoy)”.
As for `Cc1c(C#N)c(NC(=O)CSc2nnc(COc3ccccc3F)n2N)n(C[C@@H]2CCCO2)c1C` [Decoy954], the Type entry in the experiment on STAT3 is “Inactive (Decoy)”.
`CC(=O)N[C@@H]1[C@@H](OC(C)=O)[C@H](OC(C)=O)[C@@H](COC(C)=O)O[C@H]1Sc1nnc(-c2ccccc2)n1C(C)C` [Decoy955]: the Type result with STAT3 is “Inactive (Decoy)”.
Consider `CCCCCCCCO[C@@H]1[C@@H](O)[C@@H](O)O[C@H](Cn2c(=O)n(C[C@H]3O[C@H](O)[C@H](O)[C@@H](OCCCCCCCC)[C@@H]3O)c3cc(Cl)ccc32)[C@H]1O` [Decoy956], for which the Type entry in the experiment with STAT3 was “Inactive (Decoy)”.
As to `CCCCCCCCO[C@@H]1[C@@H](O)[C@H](O)O[C@H](Cn2c(=O)n(C[C@H]3O[C@@H](O)[C@H](O)[C@@H](OCCCCCCCC)[C@@H]3O)c3cc(Cl)ccc32)[C@H]1O` [Decoy957], in the experiment on STAT3, the Type result is recorded as “Inactive (Decoy)”.
Take `CC(=O)Nc1ccc(S(=O)(=O)Nc2nnc(CCNS(=O)(=O)c3ccc(C)cc3)s2)cc1` [Decoy958]: the Type result in the experiment on STAT3 is listed as “Inactive (Decoy)”.
In the case of `COC(=O)[C@@H]1O[C@@H](O[C@@H]2CC[C@@]3(C)[C@@H](CC[C@H]4[C@H]3C(=O)C[C@@]3(C)[C@@H]4CC[C@]3(O)/C(COC(C)=O)=N/NC(N)=O)C2)[C@H](OC(C)=O)[C@@H](OC(C)=O)[C@@H]1OC(C)=O` [Decoy959], the Type result in the experiment on STAT3 is “Inactive (Decoy)”.
Turning to `Nc1ccc(-n2ccc(C(=O)O)n2)nc1` [S3_B12, Nc1ccc(nc1)n1ccc(n1)C(=O)O], in experiment [1], the “identified as weakly binding in FP-assay” value was “weakly binding (A weakly binding compound (mean IC50 value higher than 100 μM))”; the IC50 was > 100 µM and 104 µM.
As to `NC(=O)C1CCN(C(=O)c2ccccc2NC(=O)c2cccc(NC(=O)CCn3ccnc3)c2)CC1` [S3_E3, NC(=O)C1CCN(CC1)C(=O)c2ccccc2NC(=O)c3cccc(c3)NC(=O)CCn4cc[n]c4], in experiment [1], the “identified as weakly binding in FP-assay” value is given as “weakly binding (A weakly binding compound (mean IC50 value higher than 100 μM))” and the IC50 amounted to 472 ± 112 µM.
For `NC(=O)CSc1ccccc1C(=O)NC[C@H](O)COc1ccc2c(c1)OCO2` [S3_E4, NC(=O)CSc1ccccc1C(=O)NC[C@H](O)COc(cc2)cc(c23)OCO3], in experiment [1], the “identified as active in FP-assay” value is “active” and the IC50 is 13.6 ± 6.1 µM.
The matching figures for `COc1ccccc1COC[C@@H](O)CN[C@H](C)c1cccc(S(N)(=O)=O)c1` [S3_E5, COc1ccccc1COC[C@@H](O)C[NH][C@H](C)c2cccc(c2)S(=O)(=O)N]: “active” and 26.7 ± 22.2 µM.
Taken in the same sequence, the figures for `O=[N+]([O-])c1ccccc1S(=O)(=O)NC[C@H](O)COc1ccc2c(c1)OCO2` [S3_E6, O=[N+]([O-])c1ccccc1S(=O)(=O)NC[C@H](O)COc(cc2)cc(c23)OCO3] were “active” and 21.7 ± 10.4 µM.
Taken in the same sequence, the figures for `Cc1cccc(OC[C@@H](O)CN(C(=O)NC[C@H]2CC(C(N)=O)=NO2)C(C)C)c1` [S3_E7, Cc1cc(ccc1)OC[C@@H](O)CN(C(C)C)C(=O)NC[C@H]2CC(=NO2)C(=O)N] were “active” and 62.7 ± 25.1 µM.
For `NCCN(Cc1csc(COc2ccccc2)n1)C[C@@H](O)CO` [S3_E8, OC[C@H](O)CN(CC[NH2])Cc1csc(n1)COc2ccccc2], in experiment [1], the “identified as weakly binding in FP-assay” value is reported as “weakly binding (A weakly binding compound (mean IC50 value higher than 100 μM))” and the IC50 amounted to 454 ± 181 µM.
For VAITVLVK [Decoy793], the Type entry in the experiment with STAT3 was “Inactive (Decoy)”.
For WAGGDASGE [Decoy910], the Type result in the experiment on STAT3 is “Inactive (Decoy)”.
